ChEMBL document CHEMBL4400569, “The discovery of quinoline-3-carboxamides as hematopoietic prostaglandin D synthase (H-PGDS) inhibitors” (Bioorg Med Chem, 2019)
≈ marks a conversion by molar mass, not a printed value.

Tests used:
[1] = Stability in human whole blood assessed as amidase-mediated carboxylic acid formation by measuring parent compound remaining measured after 1 hr; format: ADME, tissue-based
[2] = Terminal half life in mouse; format: ADME, organism-based; conditions: in vivo
[3] = Half life in mouse liver microsomes at 0.5 mM preincubated for 5 mins followed by NADP addition and measured after LC-MS/MS analysis; format: ADME, Microsome
Mus musculus = organism: Mus musculus; assay: animal or person; conditions: C57BL/6J, po
[4] = Apparent permeability of the compound at 2.5 uL at pH 7.4 incubated for 3 hrs under shaking condition by PAMPA; format: ADME
[5] = Dose normalized AUC in po dosed mouse; format: ADME, organism-based; conditions: in vivo
[6] = Volume of distribution at steady state in mouse; format: ADME, organism-based; conditions: in vivo, read-out: Vdss
[7] = Clearance in iv dosed mouse; format: ADME, organism-based; conditions: in vivo
[8] = Oral bioavailability in mouse; format: ADME, organism-based; conditions: in vivo
[9] = Solubility of the compound in FaSSIF by HPLC analysis; format: physicochemical

With `COc1ccc2cc(C(=O)N[C@H]3CCNC3=O)cnc2c1` the Stability [1] was 100%.

With `CC(C)(O)[C@H]1CC[C@H](NC(=O)c2cnc3cc(OC(F)F)ccc3c2)CC1` the beta t1/2 [2] was 3.8 h, the half-life [3] was > 3 h and the ED50 (Mus musculus) was 0.032 mg/kg. For the same compound, the Papp at 3 h [4] was 24 ×10⁻⁶ cm/s and the AUC/dose [5] was 1800 ng·h/mL per mg/kg.

Compound `COc1ccc2cc(C(=O)N[C@H]3CC[C@H](C(C)(C)O)CC3)cnc2c1` has a half-life [3] of 0.633 h.

Compound `COc1ccc2cc(C(=O)NC(C)(C)C)cnc2c1` has a Stability [1] of 1%.

For `CC(C)(O)[C@H]1CC[C@H](NC(=O)c2cnc3cc(OC(F)(F)F)ccc3c2)CC1`, the half-life [2] was 7.9 h, the half-life [3] was > 3 h and the Vd [6] was 2.5 L/kg. For the same compound, the clearance [7] was 3.8 mL/min/kg, the Papp at 3 h [4] was 47 ×10⁻⁶ cm/s and the AUC/dose [5] was 1900 ng·h/mL per mg/kg. For the same compound, the bioavailability [8] was 46% and the solubility [9] was 16 µg/mL (≈ 40.4 µM).

With `COc1ccc2cc(C(=O)Nc3cc[nH]n3)cnc2c1` the Stability [1] was 93%.

`COc1ccc2cc(C(=O)Nc3cn[nH]c3)cnc2c1` gave a Stability [1] of 63%.
